Reference: US11840686B2, “Modulation of prekallikrein (PKK) expression” (Ionis Pharmaceuticals, Inc., priority 2013, dated 2023)
Strand notation (5' to 3'): a small letter for the sugar, then the base; units joined by * are phosphorothioate-linked, units joined directly phosphodiester-linked; [ ] holds rarer units or linkages, { } end groups; capitals alone tell only the bases. e = 2'-O-(2-methoxyethyl) (MOE); [5mC] = 5-methylcytosine; d = 2'-deoxy (DNA)

System: human PKK mRNA
Experiment: Antisense inhibition of human PKK mRNA in HepaRG cells, 5,000 nM (Example 2)
Type: cell-based
Method: Additional antisense oligonucleotides were designed targeting a PKK nucleic acid and were tested for their effects on PKK mRNA in vitro.
The chimeric antisense oligonucleotides in the tables below were designed as 5-10-5 MOE gapmers, 4-9-4 MOE gapmers, 4-10-4 MOE gapmers, 4-10-3 MOE gapmers, 3-10-4 MOE gapmers, or 3-10-3 MOE gapmers. The 5-10-5 MOE gapmers are 20 nucleosides in length, wherein the central gap segment comprises of ten 2′-deoxynucleosides and is flanked by wing segments on the 5′ direction and the 3′ direction comprising five nucleosides each. The 4-9-4 MOE gapmers are 17 nucleosides in length, wherein the central gap segment comprises of nine 2′-deoxynucleosides and is flanked by wing segments on the 5′ direction and the 3′ direction comprising four nucleosides each. The 4-10-4 MOE gapmers are 18 nucleosides in length, wherein the central gap segment comprises of ten 2′-deoxynucleosides and is flanked by wing segments on the 5′ direction and the 3′ direction comprising four nucleosides each. The 4-10-3 MOE gapmers are 17 nucleosides in length, wherein the central gap segment comprises of ten 2′-deoxynucleosides and is flanked by wing segments on the 5′ direction and the 3′ direction comprising four and three nucleosides respectively. The 3-10-4 MOE gapmers are 17 nucleosides in length, wherein the central gap segment comprises often 2′-deoxynucleosides and is flanked by wing segments on the 5′ direction and the 3′ direction comprising three and four nucleosides respectively. The 3-10-3 MOE gapmers are 16 nucleosides in length, wherein the central gap segment comprises of ten 2′-deoxynucleosides and is flanked by wing segments on the 5′ direction and the 3′ direction comprising three nucleosides each. Each nucleoside in the 5′ wing segment and each nucleoside in the 3′ wing segment has a 2′-O-methoxyethyl modification. The internucleoside linkages throughout each gapmer are phosphorothioate linkages. All cytosine residues throughout each gapmer are 5-methylcytosines. “Start site” indicates the 5′-most nucleoside to which the gapmer is targeted in the human gene sequence. “Stop site” indicates the 3′-most nucleoside to which the gapmer is targeted in the human gene sequence.
Cultured HepaRG™ cells at a density of 20,000 cells per well were transfected using electroporation with 5,000 nM antisense oligonucleotide. After a treatment period of approximately 24 hours, RNA was isolated from the cells and PKK mRNA levels were measured by quantitative real-time PCR. Human primer probe set RTS3454 was used to measure mRNA levels. PKK mRNA levels were adjusted according to total RNA content, as measured by RIBOGREEN®. The antisense oligonucleotides were tested in a series of experiments that had similar culture conditions. Results are presented as percent inhibition of PKK, relative to untreated control cells.

[1] = HepaRG cells, electroporation with 5,000 nM antisense oligonucleotide, approximately 24 hours, PKK mRNA by RT-PCR (RTS3454), relative to untreated control cells, Table 6 experiment
[2] = HepaRG cells, electroporation, 5,000 nM antisense oligonucleotide, approx. 24 hours, primer probe set RTS3454, relative to untreated control cells, Table 11
[3] = HepaRG cells, electroporation with 5,000 nM antisense oligonucleotide, approximately 24 hours, PKK mRNA by RT-PCR (RTS3454), relative to untreated control cells, Table 5 experiment
[4] = Table 9 experiment, HepaRG cells, 20,000 cells per well, electroporation with 5,000 nM antisense oligonucleotide, approx. 24 hours, PKK mRNA by RT-PCR (RTS3454), relative to untreated control cells
[5] = Table 10 experiment, HepaRG cells, 20,000 cells per well, electroporation with 5,000 nM antisense oligonucleotide, approx. 24 hours, PKK mRNA by RT-PCR (RTS3454), relative to untreated control cells
[6] = HepaRG cells, electroporation, 5,000 nM antisense oligonucleotide, approx. 24 hours, primer probe set RTS3454, relative to untreated control cells, Table 12
[7] = human PKK mRNA, HepaRG cells, 5-10-5 motif oligonucleotides targeting SEQ ID NO: 1 and 10

Substance: 546181 (antisense eT*eG*eA*e[5mC]*e[5mC]*dA*d[5mC]*dA*dT*dT*dG*d[5mC]*dT*dT*d[5mC]*eA*eA*eG*eG*eA) [compound 546181]
- % inhibition [1]: 75%

Substance: 546193 (antisense e[5mC]*eA*eT*eT*eA*dA*dA*dA*dT*dT*dG*dA*d[5mC]*dT*d[5mC]*e[5mC]*eT*e[5mC]*eT*e[5mC]) [compound 546193]
- % inhibition [1]: 57%

Substance: 547723 (eT*eA*eG*eA*eA*dT*dG*dG*d[5mC]*dA*dG*dG*dG*dT*dT*e[5mC]*eT*eG*eT*eG; antisense) [compound 547723]
- % inhibition (HepaRG cells, 5,000 nM antisense oligonucleotide, 5-10-5 gapmers, Table 17): 53%

Substance: 547346 (antisense eA*e[5mC]*e[5mC]*eT*eT*dA*dG*dA*d[5mC]*dA*d[5mC]*dA*dT*dT*dA*eA*eA*eA*eT*eT) [compound 547346]
- % inhibition [1]: 57%

Substance: 546369 (antisense e[5mC]*eT*e[5mC]*eA*eG*dG*dT*dT*dG*dT*dA*dA*dA*dA*dA*eT*eT*eG*e[5mC]*e[5mC]) [compound 546369]
- % inhibition [2]: 51%

Substance: 547291 (antisense eA*eT*eG*eG*eA*dA*dG*d[5mC]*dT*dA*d[5mC]*dA*dT*d[5mC]*d[5mC]*e[5mC]*e[5mC]*eA*e[5mC]*e[5mC]) [compound 547291]
- % inhibition [3]: 74%

Substance: 546192 (antisense eA*eA*eT*eT*eG*dA*d[5mC]*dT*d[5mC]*d[5mC]*dT*d[5mC]*dT*d[5mC]*dA*eT*eA*eT*e[5mC]*eA) [compound 546192]
- % inhibition [1]: 51%

Substance: 546318 (antisense eA*eT*eT*e[5mC]*eA*dA*dA*dG*dG*dA*dG*d[5mC]*d[5mC]*dT*dG*eG*eA*eG*eT*eT) [compound 546318]
- % inhibition [4]: 47%
- % inhibition [5]: 46%

Substance: 546710 (eG*eA*eA*eG*e[5mC]*d[5mC]*dT*dG*dT*dT*dA*dG*dA*dG*dT*eT*eG*eG*e[5mC]*e[5mC]; antisense) [compound 546710]
- % inhibition [6]: 73%

Substance: 547468 (antisense eG*eT*eT*eG*eG*dT*dA*dT*dA*dA*dA*dT*dT*dG*dT*eG*e[5mC]*eT*eT*eG) [compound 547468]
- % inhibition [4]: 61%
- % inhibition [5]: 46%

Substance: 547629 (antisense eA*e[5mC]*eT*e[5mC]*eT*dA*d[5mC]*d[5mC]*dT*dA*dT*dA*dA*d[5mC]*dT*e[5mC]*eT*eA*eA*e[5mC]) [compound 547629]
- % inhibition [7]: 0%

Substance: 547367 (eA*eT*e[5mC]*eT*eG*dG*dA*dG*dT*dG*dA*dG*dA*dA*d[5mC]*e[5mC]*e[5mC]*eT*eG*eG; antisense) [compound 547367]
- % inhibition (Table 7, HepaRG cells, electroporation with 5,000 nM antisense oligonucleotide, approx. 24 hours, PKK mRNA by RT-PCR (RTS3454), relative to untreated control cells): 76%

Substance: 548745 (DNA eA*eT*e[5mC]*eA*d[5mC]*dT*dG*dT*dA*d[5mC]*dT*dA*dG*eT*eT*eT*e[5mC]; antisense) [compound 548745]
- % inhibition (human PKK mRNA, HepaRG cells, 5,000 nM antisense oligonucleotide, Table 18): 71%

Substance: 547527 (antisense e[5mC]*eT*e[5mC]*eA*eG*dT*dT*dG*d[5mC]*dG*dA*d[5mC]*d[5mC]*dT*d[5mC]*eG*e[5mC]*eA*eT*eT) [compound 547527]
- % inhibition [2]: 58%

Substance: 547557 (e[5mC]*eT*eG*eT*eG*d[5mC]*dT*dG*dT*dA*dT*dT*dT*dT*dG*eG*eA*eG*e[5mC]*e[5mC]; antisense) [compound 547557]
- % inhibition [6]: 59%

Substance: 546899 (e[5mC]*eT*eA*e[5mC]*e[5mC]*dT*dA*dT*dA*dA*d[5mC]*dT*d[5mC]*dT*dA*eA*e[5mC]*eA*eG*eT; antisense) [compound 546899]
- % inhibition [7]: 27%

Substance: 547719 (eT*eA*e[5mC]*e[5mC]*eA*dA*dG*d[5mC]*dT*dT*dG*dT*dA*dG*dA*eA*eG*eG*eG*eA; antisense) [compound 547719]
- % inhibition (HepaRG cells, 5,000 nM antisense oligonucleotide, 5-10-5 gapmers, Table 16): 69%

Substance: 548707 (DNA eA*e[5mC]*eT*dA*dG*dT*dT*dT*d[5mC]*d[5mC]*dT*dA*dT*eA*eA*e[5mC]; antisense) [compound 548707]
- % inhibition (HepaRG cells, 5,000 nM antisense oligonucleotide, human PKK mRNA, Table 18): 10%

Substance: 546874 (eA*eT*eA*eA*e[5mC]*dA*dA*dT*dA*dT*d[5mC]*dA*d[5mC]*dT*dG*eT*eA*e[5mC]*e[5mC]*eT; antisense) [compound 546874]
- % inhibition (human PKK mRNA in HepaRG cells, 5-10-5 gapmers, Table 14): 68%

Substance: 547270 (eA*eA*eA*eA*eT*dG*dA*dA*d[5mC]*dG*dG*dT*d[5mC]*dT*dT*e[5mC]*eA*eA*eG*e[5mC]; antisense) [compound 547270]
- % inhibition [3]: 68%
